Molecules are shown by their SMILES. ± gives the expanded uncertainty stated by the source.

The first data set is described as follows: xn = mol fraction of the nth substance listed. The settings on record: 328.15 K; 100 kPa; Liquid; Capillary tube (Ostwald / Ubbelohde) method; x2 = 0.
With `CCCO` [propan-1-ol] + C=CCn1cc[n+](C)c1.O=S(=O)([N-]S(=O)(=O)C(F)(F)F)C(F)(F)F, the viscosity stood at 0.985 ± 0.079 mPa·s.
In the case of `CCCO` [propan-1-ol] + CC[S+](CC)CC.O=S(=O)([N-]S(=O)(=O)C(F)(F)F)C(F)(F)F, the viscosity is recorded as 0.985 ± 0.079 mPa·s.
As for `CCCO` [propan-1-ol] + O=S(=O)([N-]S(=O)(=O)C(F)(F)F)C(F)(F)F.On1cc[n+](O)c1, the viscosity was 0.985 ± 0.079 mPa·s.

The data set is the same for the next values; noted with them: 328.15 K; 100 kPa; Liquid; Frequency=3 MHz; Single path-length method; x2 = 0.
As for `CCCO` [propan-1-ol] + C=CCn1cc[n+](C)c1.O=S(=O)([N-]S(=O)(=O)C(F)(F)F)C(F)(F)F, the speed of sound was determined as 1105.2 ± 6 m/s.
Regarding `CCCO` [propan-1-ol] + CC[S+](CC)CC.O=S(=O)([N-]S(=O)(=O)C(F)(F)F)C(F)(F)F, the speed of sound is recorded as 1105.2 ± 6 m/s.
For the compound `CCCO` [propan-1-ol] + O=S(=O)([N-]S(=O)(=O)C(F)(F)F)C(F)(F)F.On1cc[n+](O)c1, the speed of sound is 1105.2 ± 6 m/s.

The same data set, now with this note: 328.15 K; 100 kPa; Liquid; Vibrating tube method; x2 = 0.
Consider `CCCO` [propan-1-ol] + C=CCn1cc[n+](C)c1.O=S(=O)([N-]S(=O)(=O)C(F)(F)F)C(F)(F)F, for which the mass density is given as 775 ± 2 kg/m3.
Turning to `CCCO` [propan-1-ol] + CC[S+](CC)CC.O=S(=O)([N-]S(=O)(=O)C(F)(F)F)C(F)(F)F, the mass density was 775 ± 2 kg/m3.
As to `CCCO` [propan-1-ol] + O=S(=O)([N-]S(=O)(=O)C(F)(F)F)C(F)(F)F.On1cc[n+](O)c1, the mass density is 775 ± 2 kg/m3.

The data set is the same for the next values; noted with them: 333.15 K; 100 kPa; Liquid; Capillary tube (Ostwald / Ubbelohde) method; x2 = 0.
Regarding `CCCO` [propan-1-ol] + C=CCn1cc[n+](C)c1.O=S(=O)([N-]S(=O)(=O)C(F)(F)F)C(F)(F)F, the viscosity is on record as 0.892 ± 0.072 mPa·s.
Consider `CCCO` [propan-1-ol] + CC[S+](CC)CC.O=S(=O)([N-]S(=O)(=O)C(F)(F)F)C(F)(F)F, for which the viscosity worked out at 0.892 ± 0.072 mPa·s.
On to `CCCO` [propan-1-ol] + O=S(=O)([N-]S(=O)(=O)C(F)(F)F)C(F)(F)F.On1cc[n+](O)c1, for which the viscosity is listed as 0.892 ± 0.072 mPa·s.

Staying with this data set, now noted: 333.15 K; 100 kPa; Liquid; Frequency=3 MHz; Single path-length method; x2 = 0.
Turning to `CCCO` [propan-1-ol] + C=CCn1cc[n+](C)c1.O=S(=O)([N-]S(=O)(=O)C(F)(F)F)C(F)(F)F, the speed of sound amounted to 1088.3 ± 6 m/s.
Take `CCCO` [propan-1-ol] + CC[S+](CC)CC.O=S(=O)([N-]S(=O)(=O)C(F)(F)F)C(F)(F)F: the speed of sound is given as 1088.3 ± 6 m/s.
In the case of `CCCO` [propan-1-ol] + O=S(=O)([N-]S(=O)(=O)C(F)(F)F)C(F)(F)F.On1cc[n+](O)c1, the speed of sound was 1088.3 ± 6 m/s.

Staying with this data set, now noted: 333.15 K; 100 kPa; Liquid; Vibrating tube method; x2 = 0.
In the case of `CCCO` [propan-1-ol] + C=CCn1cc[n+](C)c1.O=S(=O)([N-]S(=O)(=O)C(F)(F)F)C(F)(F)F, the mass density was determined as 770 ± 2 kg/m3.
On the same count and under the same terms, for `CCCO` [propan-1-ol] + CC[S+](CC)CC.O=S(=O)([N-]S(=O)(=O)C(F)(F)F)C(F)(F)F the value was 770 ± 2 kg/m3.
As to `CCCO` [propan-1-ol] + O=S(=O)([N-]S(=O)(=O)C(F)(F)F)C(F)(F)F.On1cc[n+](O)c1, the mass density was 770 ± 2 kg/m3.

The data set is the same for the next values; noted with them: 338.15 K; 100 kPa; Liquid; Capillary tube (Ostwald / Ubbelohde) method; x2 = 0.
As to `CCCO` [propan-1-ol] + C=CCn1cc[n+](C)c1.O=S(=O)([N-]S(=O)(=O)C(F)(F)F)C(F)(F)F, the viscosity amounted to 0.81 ± 0.065 mPa·s.
`CCCO` [propan-1-ol] + CC[S+](CC)CC.O=S(=O)([N-]S(=O)(=O)C(F)(F)F)C(F)(F)F: the viscosity was determined as 0.81 ± 0.065 mPa·s.
Take `CCCO` [propan-1-ol] + O=S(=O)([N-]S(=O)(=O)C(F)(F)F)C(F)(F)F.On1cc[n+](O)c1: the viscosity came to 0.81 ± 0.065 mPa·s.

Still in this data set, the particulars now being: 338.15 K; 100 kPa; Liquid; Frequency=3 MHz; Single path-length method; x2 = 0.
On to `CCCO` [propan-1-ol] + C=CCn1cc[n+](C)c1.O=S(=O)([N-]S(=O)(=O)C(F)(F)F)C(F)(F)F, for which the speed of sound is given as 1071.5 ± 6 m/s.
Take `CCCO` [propan-1-ol] + CC[S+](CC)CC.O=S(=O)([N-]S(=O)(=O)C(F)(F)F)C(F)(F)F: the speed of sound stood at 1071.5 ± 6 m/s.
On the same count and under the same terms, the value for `CCCO` [propan-1-ol] + O=S(=O)([N-]S(=O)(=O)C(F)(F)F)C(F)(F)F.On1cc[n+](O)c1 was 1071.5 ± 6 m/s.

Still in this data set, the particulars now being: 338.15 K; 100 kPa; Liquid; Vibrating tube method; x2 = 0.
Turning to `CCCO` [propan-1-ol] + C=CCn1cc[n+](C)c1.O=S(=O)([N-]S(=O)(=O)C(F)(F)F)C(F)(F)F, the mass density worked out at 766 ± 2 kg/m3.
With `CCCO` [propan-1-ol] + CC[S+](CC)CC.O=S(=O)([N-]S(=O)(=O)C(F)(F)F)C(F)(F)F, the mass density is given as 766 ± 2 kg/m3.
Take `CCCO` [propan-1-ol] + O=S(=O)([N-]S(=O)(=O)C(F)(F)F)C(F)(F)F.On1cc[n+](O)c1: the mass density was 766 ± 2 kg/m3.

The same data set, now with this note: 343.15 K; 100 kPa; Liquid; Capillary tube (Ostwald / Ubbelohde) method; x2 = 0.
For the compound `CCCO` [propan-1-ol] + C=CCn1cc[n+](C)c1.O=S(=O)([N-]S(=O)(=O)C(F)(F)F)C(F)(F)F, the viscosity worked out at 0.737 ± 0.059 mPa·s.
Still for that read-out and setting: for `CCCO` [propan-1-ol] + CC[S+](CC)CC.O=S(=O)([N-]S(=O)(=O)C(F)(F)F)C(F)(F)F the value was 0.737 ± 0.059 mPa·s; for `CCCO` [propan-1-ol] + O=S(=O)([N-]S(=O)(=O)C(F)(F)F)C(F)(F)F.On1cc[n+](O)c1, 0.737 ± 0.059 mPa·s.

The data set is the same for the next values; noted with them: 343.15 K; 100 kPa; Liquid; Frequency=3 MHz; Single path-length method; x2 = 0.
Consider `CCCO` [propan-1-ol] + C=CCn1cc[n+](C)c1.O=S(=O)([N-]S(=O)(=O)C(F)(F)F)C(F)(F)F, for which the speed of sound is 1054.5 ± 6 m/s.
`CCCO` [propan-1-ol] + CC[S+](CC)CC.O=S(=O)([N-]S(=O)(=O)C(F)(F)F)C(F)(F)F: the speed of sound worked out at 1054.5 ± 6 m/s.
In the case of `CCCO` [propan-1-ol] + O=S(=O)([N-]S(=O)(=O)C(F)(F)F)C(F)(F)F.On1cc[n+](O)c1, the speed of sound was 1054.5 ± 6 m/s.

The same data set, now with this note: 343.15 K; 100 kPa; Liquid; Vibrating tube method; x2 = 0.
On to `CCCO` [propan-1-ol] + C=CCn1cc[n+](C)c1.O=S(=O)([N-]S(=O)(=O)C(F)(F)F)C(F)(F)F, for which the mass density is reported as 762 ± 2 kg/m3.
Consider `CCCO` [propan-1-ol] + CC[S+](CC)CC.O=S(=O)([N-]S(=O)(=O)C(F)(F)F)C(F)(F)F, for which the mass density was 762 ± 2 kg/m3.
The same measure, in the same setting: for `CCCO` [propan-1-ol] + O=S(=O)([N-]S(=O)(=O)C(F)(F)F)C(F)(F)F.On1cc[n+](O)c1 the value was 762 ± 2 kg/m3.

For orientation: viscosity means the resistance of a fluid to flow. In general, speed of sound refers to the propagation velocity of pressure waves in the medium. Usually mass density stands for the mass of a sample divided by its volume.
